Experimental data as given in ChEMBL document CHEMBL1135861, “The discovery of novel small molecule non-peptide gonadotropin releasing hormone (GnRH) receptor antagonists” (Bioorg Med Chem Lett, 2002).

Assays:
[1] = target: T1, Gonadotropin-releasing hormone receptor (Rattus norvegicus, UniProt P30969); assay: Binding affinity to rat gonadotropin-releasing hormone receptor
T1 sequence (P30969 whole entry): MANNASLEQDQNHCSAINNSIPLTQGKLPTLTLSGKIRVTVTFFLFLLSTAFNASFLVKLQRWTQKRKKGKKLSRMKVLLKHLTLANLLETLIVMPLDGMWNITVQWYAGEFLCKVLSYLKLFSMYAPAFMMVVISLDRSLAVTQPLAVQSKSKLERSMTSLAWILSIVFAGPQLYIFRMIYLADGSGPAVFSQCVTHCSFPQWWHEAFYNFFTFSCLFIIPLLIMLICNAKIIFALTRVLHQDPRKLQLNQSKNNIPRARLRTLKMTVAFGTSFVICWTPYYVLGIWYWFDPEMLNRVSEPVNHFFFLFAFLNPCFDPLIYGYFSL

[2] = target: T2, Gonadotropin-releasing hormone receptor (Homo sapiens, UniProt P30968); assay: In vitro binding affinity to human gonadotropin-releasing hormone receptor
T2 sequence (P30968 whole entry): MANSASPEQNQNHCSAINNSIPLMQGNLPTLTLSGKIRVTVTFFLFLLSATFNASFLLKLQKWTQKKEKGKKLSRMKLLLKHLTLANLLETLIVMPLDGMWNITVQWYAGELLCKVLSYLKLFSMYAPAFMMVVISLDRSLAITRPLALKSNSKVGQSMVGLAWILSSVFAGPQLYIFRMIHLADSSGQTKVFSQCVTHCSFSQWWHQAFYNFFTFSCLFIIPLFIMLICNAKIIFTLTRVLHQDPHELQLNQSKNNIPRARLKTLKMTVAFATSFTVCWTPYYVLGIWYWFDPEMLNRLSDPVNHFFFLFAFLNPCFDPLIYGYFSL

Row | Compound | Ki [1] [nM] | Ki [2] [nM]
1 | Cc1cc2c(cc1Cc1ccc(C(=O)NCC3CCNCC3)o1)C(C)(C)CCC2(C)C | 5210 | 700
2 | Cc1cc2c(cc1Cc1ccc(C(=O)NCC3CCCCC3)o1)C(C)(C)CCC2(C)C | 1550 | 180
3 | Cc1cc2c(cc1Cc1ccc(C(=O)NCC3CCC(C#N)CC3)o1)C(C)(C)CCC2(C)C (stereo not drawn) | 560 | 17
4 | COC(=O)[C@H]1CC[C@H](CNC(=O)c2ccc(Cc3cc4c(cc3C)C(C)(C)CCC4(C)C)o2)CC1 | 830 | 24
5 | Cc1cc2c(cc1Cc1ccc(C(=O)NCC3CCN(C(=N)N)CC3)o1)C(C)(C)CCC2(C)C | 2040 | 220
6 | Cc1cc2c(cc1Cc1ccc(C(=O)NCC3CCC(CNC(=O)C(F)(F)F)CC3)o1)C(C)(C)CCC2(C)C (stereo not drawn) | 2720 | 66
7 | Cc1cc2c(cc1Cc1ccc(C(=O)NC[C@H]3CC[C@@H](CNC(=N)N)CC3)o1)C(C)(C)CCC2(C)C | 730 | 40
8 | CCOC(=O)[C@H]1CC[C@H](CNC(=O)c2ccc(Cc3cc4c(cc3C)C(C)(C)CCC4(C)C)o2)CC1 | 2730 | 51
9 | Cc1cc2c(cc1Cc1ccc(C(=O)NC[C@H]3CC[C@H](C(=O)O)CC3)o1)C(C)(C)CCC2(C)C | 3000 | 250
10 | Cc1cc2c(cc1Cc1ccc(C(=O)NCC3CCN(C(=O)OC(C)(C)C)CC3)o1)C(C)(C)CCC2(C)C | 3260 | 54
11 | Cc1cc2c(cc1Cc1ccc(C(=O)NCC3CCC(CN)CC3)o1)C(C)(C)CCC2(C)C (stereo not drawn) | 730 | 42
12 | Cc1cc2c(cc1Cc1ccc(C(=O)NCC3CCCC(CN)C3)o1)C(C)(C)CCC2(C)C (stereo not drawn) | 890 | 174
13 | Cc1cc2c(cc1Cc1ccc(C(=O)NCC3CCC(CNCc4c(C)noc4C)CC3)o1)C(C)(C)CCC2(C)C (stereo not drawn) | 1200 | 180
14 | Cc1cc2c(cc1Cc1ccc(C(=O)NCC3CCC(CNCc4cc(=O)[nH]c(=O)[nH]4)CC3)o1)C(C)(C)CCC2(C)C (stereo not drawn) | 865 | 24

Compounds with a lower Ki [1], results first:

Row | Ki [1] [nM] | Ki [2] [nM] | Compound
15 | 270 | 13 | Cc1cc2c(cc1Cc1ccc(C(=O)NC[C@H]3CC[C@H](C(N)=O)CC3)o1)C(C)(C)CCC2(C)C
16 | 250 | 20 | Cc1cc2c(cc1Cc1ccc(C(=O)NCC3CCCC(CNC(=O)C(F)(F)F)C3)o1)C(C)(C)CCC2(C)C (stereo not drawn)
17 | 94 | 91 | Cc1cc2c(cc1Cc1ccc(C(=O)NCc3cccc(CN)c3)o1)C(C)(C)CCC2(C)C
18 | 385 | 16 | Cc1cc2c(cc1Cc1ccc(C(=O)NC[C@H]3CC[C@H](CNC(=N)N)CC3)o1)C(C)(C)CCC2(C)C
19 | 55 | 56 | Cc1cnc(CNC(=O)c2ccc(Cc3cc4c(cc3C)C(C)(C)CCC4(C)C)o2)cn1
20 | 280 | 140 | Cc1cc2c(cc1Cc1ccc(C(=O)NCc3ccc(CN)cc3)o1)C(C)(C)CCC2(C)C
21 | 240 | 102 | Cc1cc2c(cc1Cc1ccc(C(=O)NCc3ccccc3)o1)C(C)(C)CCC2(C)C
22 | 140 | 79 | Cc1cc2c(cc1Cc1ccc(C(=O)NCc3ccc(CN(C)C)cc3)o1)C(C)(C)CCC2(C)C
23 | 520 | 40 | Cc1cc2c(cc1Cc1ccc(C(=O)NCC3CCC(CNC(=N)N)CC3)o1)C(C)(C)CCC2(C)C (stereo not drawn)
24 | 60 | 83 | Cc1ccc(CNC(=O)c2ccc(Cc3cc4c(cc3C)C(C)(C)CCC4(C)C)o2)cc1
